{
  "source": "patent US9662322B2",
  "about": "(TEVA PHARMACEUTICAL INDUSTRIES, LTD., priority 2014, dated 2017)",
  "tested_on": "subjects with relapsing remitting multiple sclerosis (RRMS)",
  "assay": "ALLEGRO Phase III trial: MRI endpoints",
  "type": "in vivo, human",
  "procedure": "MRI related secondary endpoints were the cumulative number of GdE lesions at months 12 and 24; and the cumulative number of new T2 lesions (relative to previous scan) at months 12 and 24; MRI exploratory endpoints included percent change of brain volume using SIENA.\nAdditional MRI methodological details are as follows: In all patients, MRI scans were performed at 0, 12, and 24 months. Before a site could enroll study participants they were required to image a volunteer patient with definite MS twice with repositioning according to a strict study imaging protocol using scanners with a minimum field strength of 1.5 T. Fast/turbo spin echo (repetition time [TR]=2200-3500 ms, echo time [TE]=14-50/90-120 ms, echo train length=2-7, slice thickness=3 mm, and contiguous axial slices=44) sequences were used to obtain proton density and T2-weighted images. High resolution pre-contrast 3D T1-weighted sequences (TR=8-15 ms, TE=3-5 ms, inversion time=1.1 s, number of slices 160, slice thickness 1.2 mm, flip angle [FA]=10-15, orientation sagittal) were acquired for quantification of brain atrophy. Finally, T1-weighted images (1.5 T scanners: conventional spin echo sequence; TR=600-650 ms, TE=10-20 ms, slice thickness=3 mm, and contiguous axial slices=44; 3.0 T scanners: 3D sequence; TR=5-9 ms, TE=2-5 ms, FA=15, slice thickness=3 mm, and contiguous axial slices=44) were obtained 5 minutes after injection of 0.1 mmol/kg of gadolinium. A series of axial, coronal, and sagittal images was obtained to create an axial reference scan for subsequent careful repositioning of each patient at the follow-up session. Axial slices were positioned to run parallel to a line joining the most inferioanterior and inferioposterior parts of the corpus callosum.\nImage quality was reviewed at the MRI-AC using predetermined criteria. The identification of GdE and T2-hyperintense lesions was done by consensus of two experienced observers. The number of total and new GdE lesions and new/enlarging T2-hyperintense lesions were counted. The identified lesions were then outlined by trained technicians using a semiautomated segmentation technique based on local thresholding (Jim 4.0; Xinapse System, Leicester, UK) and lesion volumes were calculated automatically. Percentage brain volume changes and cross-sectional normalized brain volumes were measured on […] T1-weighted images, with Structural Image Evaluation of Normalized Atrophy (SIENA) software and a cross-sectional method (SIENAX) (available from the FMRIB Software Library, Oxford University, Oxford, UK; http://www.fmrib.ox.ac.uk/analysis/research/siena/siena).\nAnalyses of the secondary MRI endpoints of the cumulative number of GdE and new/enlarging T2 lesions at 12 and 24 months involved a baseline-adjusted negative binomial regression with an “offset” employing the log of the relative exposure to adjust for early-terminated patients. The model included as covariates the number of enhancing lesions at baseline, and country or geographical region. In the case of new/enlarging T2 lesion analysis, the baseline T2 lesion volume was also added. The MRI secondary endpoints analyses were tested simultaneously with an overall type I error of 5%, using the Hochberg's step-up modification to Bonferroni's method to the two P-values obtained from the analyses of these two endpoints. The analysis of the brain atrophy endpoint involved a baseline-adjusted analysis of covariance (ANCOVA). The covariates were the number of GdE lesions at baseline and the country or region. The exploratory endpoints were all analyzed at a significance level of 5%.\nSecondary endpoints of the ALLEGRO trial included disease activity as measured by MRI, including counts of Gadolinium enhancing T1 lesions and new-T2 hyperintense lesions. […] Conventional MRI scans for new T1 hypointense lesions, and brain volume using SIENA were performed at baseline, 12 and 24 months. […]",
  "data": [
    {"smiles": "CCN(C(=O)c1c(O)c2c(Cl)cccc2n(C)c1=O)c1ccccc1", "note": "[Laquinimod, laquinimod]", "values": [
      {"measurement": "BA at month 12, Effect (reduction in brain atrophy)", "setting": "baseline to 12 months, vs placebo", "result": 53, "unit": "% reduction"},
      {"measurement": "Hypointense T1 volume, BL to M 24", "setting": "change baseline to month 24", "result": 7, "unit": "%"},
      {"measurement": "Hypointense T1 volume month 0", "setting": "month 0 (baseline)", "result": 2.65},
      {"measurement": "T2 volume month 0", "setting": "month 0 (baseline)", "result": 7.27},
      {"measurement": "% BV change by previous medications: naïve", "setting": "post-hoc", "result": "−0.82", "unit": "%"},
      {"measurement": "GdE lesion free M 12", "setting": "post-hoc", "result": 69, "unit": "%"},
      {"measurement": "% BV change M 24, GdE = 0, Effect", "setting": "post-hoc, vs placebo", "result": 30, "unit": "% reduction"},
      {"measurement": "% BV change M 24, GdE > 0, Effect", "setting": "post-hoc, vs placebo", "result": 37, "unit": "% reduction"},
      {"measurement": "% BV change by previous medications: naïve, Effect", "setting": "post-hoc, vs placebo", "result": 38, "unit": "% reduction"},
      {"measurement": "% BV change by previous medications: not naive, Effect", "setting": "post-hoc, vs placebo", "result": 23, "unit": "% reduction"},
      {"measurement": "BA for pts with all scans: Change BL to M 12, Effect", "setting": "post-hoc, vs placebo", "result": 60, "unit": "%"},
      {"measurement": "BA for pts with all scans: Change BL to M 24, Effect", "setting": "post-hoc, vs placebo", "result": 57, "unit": "%"},
      {"measurement": "Cum # T1 GdE by previous medications: naïve, Effect", "setting": "post-hoc, vs placebo", "result": 42, "unit": "% reduction"},
      {"measurement": "Cum # T1 GdE by previous medications: not naive, Effect", "setting": "post-hoc, vs placebo", "result": 32, "unit": "% reduction"},
      {"measurement": "Cum New T2 by previous medications: naïve, Effect", "setting": "post-hoc, vs placebo", "result": 33, "unit": "% reduction"},
      {"measurement": "Cum New T2 by previous medications: not naive, Effect", "setting": "post-hoc, vs placebo", "result": 24, "unit": "% reduction"},
      {"measurement": "GdE counts M 12, Effect", "setting": "post-hoc, vs placebo", "result": 36, "unit": "% reduction"},
      {"measurement": "GdE counts M 24, Effect", "setting": "post-hoc, vs placebo", "result": 39, "unit": "% reduction"},
      {"measurement": "GdE lesion free M 12, Effect", "setting": "post-hoc, vs placebo", "result": 49, "unit": "% odds"},
      {"measurement": "GdE lesion free M 24, Effect", "setting": "post-hoc, vs placebo", "result": 72, "unit": "% odds"},
      {"measurement": "GdE volume M 12, Effect", "setting": "post-hoc, vs placebo", "result": 4.5, "unit": "%"},
      {"measurement": "GdE volume M 24, Effect", "setting": "post-hoc, vs placebo", "result": 4.7, "unit": "%"},
      {"measurement": "New-T1 Hypointense Lesions M 12, Effect", "setting": "post-hoc, vs placebo", "result": 27, "unit": "% reduction"},
      {"measurement": "New-T1 Hypointense Lesions M 24, Effect", "setting": "post-hoc, vs placebo", "result": 32, "unit": "% reduction"},
      {"measurement": "T1 Hypointense Lesion free M 12, Effect", "setting": "post-hoc, vs placebo", "result": 28, "unit": "% odds"},
      {"measurement": "T1 Hypointense Lesion free M 24, Effect", "setting": "post-hoc, vs placebo", "result": 47, "unit": "% odds"},
      {"measurement": "T1 hypointense by previous medications: naïve, Effect", "setting": "post-hoc, vs placebo", "result": 28, "unit": "% reduction"},
      {"measurement": "T1 hypointense by previous medications: not naive, Effect", "setting": "post-hoc, vs placebo", "result": 25, "unit": "% reduction"},
      {"measurement": "T2 lesion free M 12, Effect", "setting": "post-hoc, vs placebo", "result": 39, "unit": "% odds"},
      {"measurement": "T2 lesion free M 24, Effect", "setting": "post-hoc, vs placebo", "result": 40, "unit": "% odds"},
      {"measurement": "Average MTR of T2 visible lesions, difference", "setting": "vs placebo", "result": 0.330},
      {"measurement": "Cumulative new Hypointense T1 months 12 + 24, Effect", "setting": "vs placebo", "result": 27, "unit": "% reduction"},
      {"measurement": "Cumulative number of GdE lesions at months 12 and 24, Effect", "setting": "vs placebo", "result": 37, "unit": "% reduction"},
      {"measurement": "Cumulative number of new/enlarging T2 lesions at 12 and 24 months, Effect", "setting": "vs placebo", "result": 30, "unit": "% reduction"},
      {"measurement": "Hypointense T1 volume month 12, Effect", "setting": "vs placebo", "result": "~1", "unit": "%"},
      {"measurement": "Hypointense T1 volume month 24, Effect", "setting": "vs placebo", "result": "~1", "unit": "%"},
      {"measurement": "T2 volume month 12, Effect", "setting": "vs placebo", "result": 5, "unit": "%"},
      {"measurement": "T2 volume month 24, Effect", "setting": "vs placebo", "result": 5, "unit": "%"},
      {"measurement": "Cumulative number of new/enlarging T2 lesions at 12 and 24 months, Effect", "setting": "vs placebo, listed as laquinimod", "result": 30, "unit": "% reduction"}
    ]}
  ]
}
